How the values were obtained:
[1] = molecular target: T1, Bromodomain-containing protein 4 (Homo sapiens, UniProt O60885); assay: (§1) TR-FRET Assay: Compound dilution series were prepared in DMSO via an approximately 3-fold serial dilution. Compound dilutions were added directly into white, low-volume assay plates (Perkin Elmer Proxiplate 384 Plus#6008280) using a Labcyte Echo in conjunction with Labcyte Access and Thermo Multidrop CombinL robotics. Compounds were then suspended in eight microliters (μL) of assay buffer (20 mM Sodium Phosphate, pH 6.0, 50 mM NaCl, 1 mM Ethylenediaminetetraacetic acid disodium salt dihydrate, 0.01% Triton X-100, 1 mM DL-Dithiothreitol) containing His-tagged bromodomain, Europium-conjugated anti-His antibody (Invitrogen PV5596) and Alexa-647-conjugated probe.The final concentration of 1× assay mixture contained 2% DMSO, 12 nM His tagged BRD4 (BDI_K57-E168) and 100 nM probe or 4 nM His tagged BRD4 (BDII_E352-M457) and 30 nM probe, and 1 nM Europium-conjugated anti-His-tag antibody, and compound concentrations in the range of: 49.02 μM-0.61 nM or 0.98 μM-0.15 nM.After a one-hour equilibration at room temperature, TR-FRET ratios were determined using an Envision multilabel plate reader (Ex 340, […]).
[2] = molecular target: T1, Bromodomain-containing protein 4; assay: as §1; remark: listed apart in the source

Ki [1] [nM]	Ki [2] [nM]	SMILES
6690	6.6	Cc1cccc(C)c1Oc1ccc(C(C)(O)CC(C)C)cc1-c1cn(C)c(=O)c2[nH]c(C(=O)NC(C)(C)C)cc12 (centres undefined)
1770	7.4	Cc1cc(F)cc(Cl)c1Oc1ccc(C(C)(C)O)cc1-c1cn(C)c(=O)c2[nH]c(C(=O)NC3(C)CC3(F)F)cc12 (centres undefined)

Reference: ChEMBL document CHEMBL5727676, “Bromodomain inhibitors” (2020)
